From US7893286B2, “Method for the synthesis of phospholipid ethers” (Cellectar, Inc., priority 2007, dated 2011) come the findings set out here.

For this test, the system named is A549 human non-small cell lung cancer xenografts. The experiment in a line: Antitumor effect of single-dose ^125I-NM404 on tumor volume in SCID mice bearing A549 xenografts. Type of test: in vivo. Particulars: for effect on tumor volume compared to control animals: up to 10 weeks post-injection. The text has this:
FIG. 2, illustrates antitumor effect of single-dose treatment with ^125I-125-NM404 at doses of 50 (⊚), 150 (□), 250 (⋄) and 500 (∘) μCi in SCID mice bearing A549 human non-small cell lung cancer xenografts. In this figure, control animals show rapidly growing tumors over the 10-week assessment period.
FIG. 2 summarizes investigations into the efficacy of ^125I-NM404 treatment. These investigations provided assessments of tumor volume were made until 10 weeks post-injection or until no animal in the control group is alive, whatever came first. Summarizing the results, control animals show rapidly growing tumors over the 10-week assessment period. […] Tumor volumes are stable and same tumors appear “collapsed” (the tumor surface has caved in). Additionally, FIG. 3 illustrates that hair above the tumors fell off confirming substantial accumulation of radioactivity in these tumors.

Molecules are shown by their SMILES.

Regarding `C[N+](C)(C)CCOP(=O)([O-])OCCCCCCCCCCCCCCCCCCc1ccc([125I])cc1` [^125I-NM404], the “effect on the tumor (appearance)” value (250 μCi, 4 weeks following injection) is given as “causes central necrosis”. For the same molecule, the “dose dependence of effect on tumor volume” value (doses 50-500 μCi) is “dose-linear effect”. Also, under “following single injection and fractionated dosing”, the tumor therapy efficacy entry is listed as “effective tumor therapy treatment”. In addition, the “effect on tumor volume compared to control animals” value was “did not show any difference” (single dose 50 μCi); “substantial and prolonged treatment effect” (single dose 250 μCi); “substantial and prolonged treatment effect” (single dose 500 μCi).
